Laboratory results as given in patent US10391111B2, “Composition for preventing or treating cervical cancer including gypenoside LXXV” (INTELLIGENT SYNTHETIC BIOLOGY CENTER, priority 2015, dated 2019).
Entries after “also recorded” stand apart in the source; their conditions may differ. Read-outs that look alike come from different tables or passages of the source.

Test system: HeLa cells
Experiment: MTT assay of HeLa cell viability (cytotoxic / anti-proliferative effect)
Type: cell-based
Details: for inhibition of HeLa cells: 50 μM; for effect on cell division: HeLa cells, 2.5 μM to 100 μM; for CC50: read-out: LC50 values against HeLa cells
Experimental: HeLa cells were cultured in DMEM (Dulbecco's Modified Eagle's Medium) containing 10% FBS, 2 mmol/L of glutamine, 100 U/mL penicillin, and […] of streptomycin at 37° C. under 5% CO2 condition. An appropriate amount of GypLXXV in DMSO (dimethyl sulfoxide) was taken according to a final concentration as described and added to the culture medium.
In vitro chemosensitivity was measured by MTT (dimethyl thiazolyl-2,5-diphenyltetrazolium bromide) assay (CellTiter 96® Non-Radioactive Cell Proliferation Assay kit. Promega), 100 μl of HeLa cells were dispensed at a density of 10^4 cells per well in a 96-well plate, and incubated for 24 hrs. To measure anti-proliferative effects of GypLXXV. Rg3(S). Rb1 and GypXVII, 2.5 μM to 100 μM of the compound was diluted with a FBS-free medium, and added to each well. Thereafter, the cells treated with the compound were incubated at 37° C. for 48 hrs, and MTT was added to each well, followed by further incubation for 4 hrs. After aspiration of the culture medium, formazan formed from MTT was dissolved in 100 μl of solubilization/stop solution. Thereafter, optical density of each well was measured at a wavelength of 595 nm using a microplate reader. Results were expressed as LC50 values analyzed using a GraphPad Prism 5 program.

SMILES	inhibition of HeLa cells (48 hrs)	effect on cell division	CC50 (MTT assay, 48 hrs incubation, 2.5 μM to 100 μM compound, FBS-free medium) [µM]	anti-cancer / anti-proliferative effect compared with the other compounds (FIG. 2) (HeLa cell viability, 48 hrs)	CC50 (Homo sapiens, HeLa, 48 h) [µM]
CC(C)=CCC[C@](C)(O)[C@H]1CC[C@]2(C)[C@@H]1[C@H](O)C[C@@H]1[C@@]3(C)CC[C@H](O[C@@H]4O[C@H](CO)[C@@H](O)[C@H](O)[C@H]4O[C@@H]4O[C@H](CO)[C@@H](O)[C@H](O)[C@H]4O)C(C)(C)[C@@H]3CC[C@]12C [Rg3(S), 20(S)-ginsenoside-Rg3, reference compound]	almost all HeLa cells were inhibited	decreased cell division in a dose-dependent manner	23.5	–	–
CC(C)=CCC[C@](C)(O[C@@H]1O[C@H](CO[C@@H]2O[C@H](CO)[C@@H](O)[C@H](O)[C@H]2O)[C@@H](O)[C@H](O)[C@H]1O)[C@H]1CC[C@]2(C)[C@@H]1[C@H](O)C[C@@H]1[C@@]3(C)CC[C@H](O)C(C)(C)[C@@H]3CC[C@]12C [GypLXXV, gypenoside LXXV]	almost all HeLa cells were inhibited	decreased cell division in a dose-dependent manner	–	anti-proliferative activity similar to that of Rg3(S); also recorded: higher anti-cancer effects than those of Rb1 or GypXVII	29.9
